Reference: PMC11187126, “Structure and dynamics of the pyroglutamylated RF-amide peptide QRFP receptor GPR103” (Nature Communications, 2024)
Read-outs that look alike come from different tables or passages of the source. No end group written: not given here.

Target: T1, GPR103 Y214^5.38A (Homo sapiens, UniProt Q96P65, Y214A)
T1 construct: we used human full-length QRFPR-encoding plasmids; expressed in transfected cells; host or cells: HEK293 cells, pCAGGS vector
T1 sequence (Q96P65 1-431 Y214A): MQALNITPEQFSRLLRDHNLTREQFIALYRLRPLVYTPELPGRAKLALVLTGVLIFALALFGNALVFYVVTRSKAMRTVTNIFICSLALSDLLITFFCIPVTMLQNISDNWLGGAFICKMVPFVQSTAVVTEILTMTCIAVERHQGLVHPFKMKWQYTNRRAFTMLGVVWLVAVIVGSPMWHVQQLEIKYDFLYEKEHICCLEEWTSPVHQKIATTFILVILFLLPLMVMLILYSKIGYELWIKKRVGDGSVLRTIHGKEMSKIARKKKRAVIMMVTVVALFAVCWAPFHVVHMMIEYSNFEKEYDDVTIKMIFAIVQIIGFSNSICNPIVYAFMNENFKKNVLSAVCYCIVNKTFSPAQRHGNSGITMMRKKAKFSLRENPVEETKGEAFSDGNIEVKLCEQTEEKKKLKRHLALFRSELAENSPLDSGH
Assay: TGFα shedding assay; Exp. level WT (1:50)
Assay type: cell-based

Emax (Exp. #1): 18.32 % WT | Emax (Exp. #2): 10.80 % WT | Emax (Exp. #3): 19.27 % WT | Emax (mean, read-out: Emax): 16.1% | EC50 (n = 3): 105 nM | Emax (n = 3, read-out: Emax): 16.6 ± 2.2%
Substance: TSGPLGNLAEELNGYSRKKGGFSFRF-NH2 [QRFP26]
